Test results as given in US20260159536A1, “AKR1C3-ACTIVATED DNA ALKYLATING AGENT, AND MEDICAL APPLICATION THEREOF” (ASCENTAWITS PHARMACEUTICALS, LTD., priority 2021, published 2026).

Key:
[1] = tested on: HuPrime model PA1222 human pancreatic cancer; experiment: In vivo pharmacodynamics, pancreatic cancer PA1222 PDX model; details: for Tumor volume: 10 mg/kg i.v.
Procedure: The test was divided into groups of test drug Gemcitabine 120 mg/kg group, test drug Compound A 10 mg/kg and 7.5% anhydrous ethanol+7.5% polyoxyethylene (35) castor oil+85% glucose injection DSW (pH 7.4) vehicle control group, a total of 3 groups, with 5 mice per group. […] Test drug Gemcitabine (Gemcitabine) 120 mg/kg group was administered intraperitoneally, once a week for three consecutive weeks.

[2] = Plasma stability test, human; assay type: in vitro ADME; details: 37° C.
Procedure: (§1) The pH of the plasma was checked and recorded. Note: a.
(§2) The final concentration of solvent was 0.5%.
(§3) The assay was performed in duplicate. […] The tubes were mixed by vortex for 5 minutes.

[3] = tested on: MHCC97H; experiment: Cytotoxicity on hepatocellular carcinoma cell line MHCC97H; assay type: cell-based
Procedure: (§4) If not otherwise specified, IC50 values were measured by the following experimental methods:
(§5) a) Cells were plated for 24 hours, and then the compounds acted singly. 99 μL of growth medium was supplemented per well, and then 1 μL of 200× compound was added, gently shaken to ensure uniform mixing, and then placed in a 37° C., 5% CO2 incubator.
(§6) b) The cell plate was placed in the incubator for 72 hours.
(§7) b) 100 μL of CTG reagent (CelltiterGlo kit) was added to each well, the plate was placed in a rapid oscillator and shaken for 2 minutes, and then placed at room temperature for 30 minutes away from light.
(§8) The IC50 was calculated using GraphPad Prism 8 software and the IC50 (half inhibitory concentration) of the compounds was obtained using the following non-linear fitting formula: […]
(§9) Using the same experimental methods as described above, Compounds A, B and C were further tested for cytotoxicity against different hepatocellular carcinoma (HCC) cell lines SNU354, SNU886, MHCC97H and huH-1, and the results were shown in Table 2 below: […]

[4] = tested on: human lung cancer NCI-H460 cells; experiment: In vivo pharmacodynamics, NCI-H460 subcutaneous xenograft model; design: species or system BALB/c nude mice; details: Day 31
Procedure: BALB/c nude mice were subcutaneously inoculated with human lung cancer NCI-H460 cells to establish a subcutaneous transplantation tumor model of human lung cancer.
The pharmacodynamic analysis of each group in the NCI-H460 CDX model was performed on Day 31 after tumor cell inoculation, and the results were shown in Table 10.

[5] = tested on: SNU886; experiment: Cytotoxicity on hepatocellular carcinoma cell line SNU886; assay type: cell-based
Procedure: as §4, §5, §6, §7, §8, §9

[6] = tested on: human liver cancer LI6652; experiment: In vivo pharmacodynamics, liver cancer LI6652 subcutaneous xenograft PDX model; design: species or system BALB/c nude mice; details: 5 mg/kg i.p. QDx5, 2 days off, 2 weeks off, 2 cycles; Day 28
[7] = Plasma stability test, mouse; assay type: in vitro ADME; details: 5 μM, 37° C.
Procedure: as §1, §2, §3

[8] = tested on: HuPrime model LI1005 human liver cancer; experiment: In vivo pharmacodynamics, liver cancer LI1005 PDX model; design: species or system BALB/c nude mice; details: for Tumor volume (x ± S): in mm³ (unit assumed)
[9] = MTD assay of AST-3424, single 30 min intravenous drip; assay type: in vivo, machins; details: for maximal tolerance dose: single dose; for day of test substance-related death: male
Procedure: The maximal tolerance dose in machins after a single administration of AST-3424 injection by intravenous drip for 30 minutes was evaluated.

[10] = 1.25 mg/kg, QDx5, 2 days off, 2 weeks off, QDx5, i.p., Day 35
[11] = 2.5 mg/kg, QDx5, 2 days off, 2 weeks off, QDx5, i.p., Day 35
[12] = 5 mg/kg, QDx5, 2 days off, 2 weeks off, QDx5, i.p., Day 35
[13] = 10 mg/kg, QWx2, 1 week off, QWx2, i.v., Day 35

O=[N+]([O-])c1ccc(C(OP(=O)(N2CC2)N2CC2)C(F)(F)F)cc1Oc1ccc(-c2ccc(F)cc2)c(F)c1 (racemic) [Compound A]
toxic side effects (body weight change) ([1]; 10 mg/kg i.v. QWx3): without toxic side effects
Tumor volume ([1]; Day 0): 111.50 mm^3
Tumor volume ([1]; Day 3): 117.62 mm^3
Tumor volume ([1]; Day 7): 113.91 mm^3
Tumor volume ([1]; Day 10): 107.17 mm^3
Tumor volume ([1]; Day 14): 66.08 mm^3
Tumor volume ([1]; Day 17): 42.94 mm^3
Tumor volume ([1]; Day 21): 23.22 mm^3
Tumor volume ([1]; Day 24): 21.20 mm^3
Tumor volume ([1]; Day 28): 12.51 mm^3
Relative tumor volume (x ± S) ([1]; 10 mg/kg, QWx3, i.v., Day 28): 0.10 ± 0.04
T/C (%) ([1]; 10 mg/kg, QWx3, i.v., Day 28): 2.86%
TGI (%) ([1]; 10 mg/kg, QWx3, i.v., Day 28): 97.14%
Tumor volume (x ± S) ([1]; 10 mg/kg, QWx3, i.v., Day 28): 12.51 ± 5.25
Percentage remaining after 2 hours in plasma ([2]; Human plasma, 5 μM): 60.06%
remained in plasma after 2 hours ([2]; human plasma): 60.06%
IC50 ([3]; Homo sapiens): 396 nM
ratio A/B ([3]; IC50 ratio): 1.63
ratio A/C ([3]; IC50 ratio): 0.70
T/C (%) ([4]; 10 mg/kg, QWx3, i.v.): 8.94%
Tumor volume (x ± S) ([4]; 10 mg/kg, QWx3, i.v., in mm³ (unit assumed)): 164.13 ± 34.01
Tumor volume ([4]; 15 mg/kg i.v.): 125.90 mm^3
Relative tumor volume (x ± S) ([4]; 15 mg/kg, QWx3, i.v.): 0.92 ± 0.22
TGI (%) ([4]; 15 mg/kg, QWx3, i.v.): 93.06%
ratio A/B ([5]; IC50 ratio): 1.66
ratio A/C ([5]; IC50 ratio): 0.75
IC50 ([5]; SNU-886): 628 nM
TGI (%) [6]: 99.86%
Percentage remaining after 2 hours in plasma [7]: 38.19%
Tumor volume ([8]; 1.25 mg/kg i.p., Day 0): 102.66 mm^3
Tumor volume ([8]; 1.25 mg/kg i.p., Day 3): 157.94 mm^3
Tumor volume ([8]; 1.25 mg/kg i.p., Day 7): 198.68 mm^3
Tumor volume ([8]; 1.25 mg/kg i.p., Day 10): 188.83 mm^3
Tumor volume ([8]; 1.25 mg/kg i.p., Day 14): 196.25 mm^3
Tumor volume ([8]; 1.25 mg/kg i.p., Day 17): 204.85 mm^3
Tumor volume ([8]; 1.25 mg/kg i.p., Day 21): 228.87 mm^3
Tumor volume ([8]; 1.25 mg/kg i.p., Day 24): 256.49 mm^3
Tumor volume ([8]; 1.25 mg/kg i.p., Day 28): 246.26 mm^3
Tumor volume ([8]; 1.25 mg/kg i.p., Day 31): 282.93 mm^3
Tumor volume ([8]; 1.25 mg/kg i.p., Day 35): 334.61 mm^3
Relative tumor volume (x ± S) [8, 10]: 3.28 ± 0.53
T/C (%) [8, 10]: 32.47%
TGI (%) [8, 10]: 67.53%
Tumor volume (x ± S) [8, 10]: 334.61 ± 61.24
Tumor volume ([8]; 2.5 mg/kg i.p., Day 0): 103.02 mm^3
Tumor volume ([8]; 2.5 mg/kg i.p., Day 3): 156.63 mm^3
Tumor volume ([8]; 2.5 mg/kg i.p., Day 7): 197.27 mm^3
Tumor volume ([8]; 2.5 mg/kg i.p., Day 10): 156.39 mm^3
Tumor volume ([8]; 2.5 mg/kg i.p., Day 14): 147.34 mm^3
Tumor volume ([8]; 2.5 mg/kg i.p., Day 17): 148.94 mm^3
Tumor volume ([8]; 2.5 mg/kg i.p., Day 21): 173.92 mm^3
Tumor volume ([8]; 2.5 mg/kg i.p., Day 24): 180.83 mm^3
Tumor volume ([8]; 2.5 mg/kg i.p., Day 28): 178.96 mm^3
Tumor volume ([8]; 2.5 mg/kg i.p., Day 31): 182.98 mm^3
Tumor volume ([8]; 2.5 mg/kg i.p., Day 35): 178.69 mm^3
Relative tumor volume (x ± S) [8, 11]: 1.60 ± 0.42
T/C (%) [8, 11]: 15.88%
TGI (%) [8, 11]: 84.12%
Tumor volume (x ± S) [8, 11]: 178.69 ± 65.98
Tumor volume ([8]; 5 mg/kg i.p., Day 0): 103.15 mm^3
Tumor volume ([8]; 5 mg/kg i.p., Day 3): 160.80 mm^3
Tumor volume ([8]; 5 mg/kg i.p., Day 7): 167.82 mm^3
Tumor volume ([8]; 5 mg/kg i.p., Day 10): 120.93 mm^3
Tumor volume ([8]; 5 mg/kg i.p., Day 14): 97.35 mm^3
Tumor volume ([8]; 5 mg/kg i.p., Day 17): 90.25 mm^3
Tumor volume ([8]; 5 mg/kg i.p., Day 21): 106.81 mm^3
Tumor volume ([8]; 5 mg/kg i.p., Day 24): 115.29 mm^3
Tumor volume ([8]; 5 mg/kg i.p., Day 28): 110.01 mm^3
Tumor volume ([8]; 5 mg/kg i.p., Day 31): 102.22 mm^3
Tumor volume ([8]; 5 mg/kg i.p., Day 35): 85.00 mm^3
Relative tumor volume (x ± S) [8, 12]: 0.77 ± 0.18
T/C (%) [8, 12]: 7.62%
TGI (%) [8, 12]: 92.38%
Tumor volume (x ± S) [8, 12]: 85.00 ± 26.32
Tumor volume ([8]; 10 mg/kg i.v., Day 0): 102.58 mm^3
Tumor volume ([8]; 10 mg/kg i.v., Day 3): 127.72 mm^3
Tumor volume ([8]; 10 mg/kg i.v., Day 7): 172.58 mm^3
Tumor volume ([8]; 10 mg/kg i.v., Day 10): 138.61 mm^3
Tumor volume ([8]; 10 mg/kg i.v., Day 14): 127.60 mm^3
Tumor volume ([8]; 10 mg/kg i.v., Day 17): 132.95 mm^3
Tumor volume ([8]; 10 mg/kg i.v., Day 21): 151.00 mm^3
Tumor volume ([8]; 10 mg/kg i.v., Day 24): 181.36 mm^3
Tumor volume ([8]; 10 mg/kg i.v., Day 28): 191.25 mm^3
Tumor volume ([8]; 10 mg/kg i.v., Day 31): 186.25 mm^3
Tumor volume ([8]; 10 mg/kg i.v., Day 35): 179.97 mm^3
Relative tumor volume (x ± S) [8, 13]: 1.87 ± 0.54
T/C (%) [8, 13]: 18.53%
TGI (%) [8, 13]: 81.47%
Tumor volume (x ± S) [8, 13]: 179.97 ± 51.38
tolerability / body weight ([8]; Compound A 10, 1.25, 2.5, 5 mg/kg, Sorafenib 30 mg/kg): well tolerated

C[C@@H](OP(=O)(N1CC1)N1CC1)c1ccc([N+](=O)[O-])c(Oc2cccc(C(=O)N(C)C)c2)c1 [AST-3424]
maximal tolerance dose ([9]; female machins): 1.5 mg/kg
clinical observation ([9]; female monkeys, 1.5 mg/kg): weight loss, decreased food consumption, diarrhoea and vomiting
maximal tolerance dose ([9]; male machins): 0.5 mg/kg
day of test substance-related death ([9]; 1.0 mg/kg): 16 days
day of test substance-related death ([9]; 1.5 mg/kg): 8 days
doses at which death of male monkeys was observed ([9]; single intravenous drip 30 minutes): ≥ 1.0 mg/kg
